Experimental data as given in PubChem BioAssay (NCI).
Values joined by “and” are separate entries in the source; they are usually repeats but may differ in a detail not shown here. Equal entries are not always repeated.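 Results reflect a 48-hour exposure of cells in 96-well plates to compound at five concentrations. At the GI50, growth is halved. TGI marks complete inhibition of growth.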

Experiments:
Experiment in all cases: growth of human tumour cells (NCI), 48 h
KM20L2 colon = test system: KM20L2 colon
UACC-62 melanoma = test system: UACC-62 melanoma
SK-MEL-5 melanoma = test system: SK-MEL-5 melanoma
HOP-18 NSCLC = test system: HOP-18 NSCLC
XF 498 CNS = test system: XF 498 CNS
LXFL 529 NSCLC = test system: LXFL 529 NSCLC
SNB-78 CNS = test system: SNB-78 CNS
M19-MEL melanoma = test system: M19-MEL melanoma
DMS 273 small cell lung = test system: DMS 273 small cell lung
EKVX NSCLC = test system: EKVX NSCLC
DLD-1 colon = test system: DLD-1 colon
DMS 114 small cell lung = test system: DMS 114 small cell lung

SMILES: C[C@]12CCC3c4ccc(OC(=O)c5ccccc5)cc4CC[C@H]3C1CC[C@@H]2OC(=O)C12OC1CCC2=O (stereo partly specified)
- TGI (KM20L2 colon): 11.9 µM
- TGI (UACC-62 melanoma): 38.4 µM
- TGI (SK-MEL-5 melanoma): 9.49 µM
- TGI (HOP-18 NSCLC): 10.7 µM
- TGI (XF 498 CNS): 11.1 µM
- TGI (LXFL 529 NSCLC): 3.76 µM
- TGI (SNB-78 CNS): 14.1 µM
- TGI (M19-MEL melanoma): 11.3 µM
- TGI (DMS 273 small cell lung): 9.52 µM
- TGI (EKVX NSCLC): 15 µM
- TGI (DLD-1 colon): 6.37 µM
- TGI (DMS 114 small cell lung): 6.7 µM

SMILES: CC(=O)OCc1nc(C#N)c(N)o1
- TGI (UACC-62 melanoma): > 100 µM
- TGI (SK-MEL-5 melanoma): > 100 µM
- TGI (EKVX NSCLC): > 100 µM

SMILES: Cc1[nH]c2c(C)ccc(C)c2c1CC(=O)O
- TGI (UACC-62 melanoma): > 100 µM
- TGI (SK-MEL-5 melanoma): > 100 µM
- TGI (EKVX NSCLC): > 100 µM

SMILES: CCOC(=O)Cn1c(=O)c2nc(SC)sc2n(-c2ccc(C)cc2)c1=S
- TGI (UACC-62 melanoma): > 100 µM
- TGI (SK-MEL-5 melanoma): > 100 µM
- TGI (EKVX NSCLC): > 100 µM

SMILES: CCc1cc(-c2nsc(=O)o2)c(S(=O)(=O)CC)s1
- TGI (SK-MEL-5 melanoma): > 100 µM
- TGI (EKVX NSCLC): > 100 µM

SMILES: [N-]=[N+]=NC1(N=[N+]=[N-])C(=O)NN=C(c2ccccc2)C1=O (stereo unspecified)
- TGI (UACC-62 melanoma): > 100 µM
- TGI (EKVX NSCLC): > 100 µM

SMILES: CC(C)[Si](OC12CCC(CC1O)CC2C(=O)O)(C(C)C)C(C)C (stereo unspecified)
- TGI (UACC-62 melanoma): 27.6 µM
- TGI (SK-MEL-5 melanoma): 51.6 µM

SMILES: NC(=S)SCCC(=O)O
- TGI (UACC-62 melanoma): > 100 µM
- TGI (SK-MEL-5 melanoma): > 100 µM
- TGI (EKVX NSCLC): > 100 µM

SMILES: O=C1CC2[C@@H](N3CCCC3)CCC(N1Cc1ccccc1)C2(O)O (stereo partly specified)
- TGI (UACC-62 melanoma): > 100 µM
- TGI (SK-MEL-5 melanoma): > 100 µM
- TGI (EKVX NSCLC): > 100 µM

SMILES: COC(=O)C1=CC(O)CCC1c1ccc(OC)cc1 (stereo unspecified)
- TGI (KM20L2 colon): > 100 µM
- TGI (UACC-62 melanoma): > 100 µM
- TGI (SK-MEL-5 melanoma): > 100 µM
- TGI (HOP-18 NSCLC): > 100 µM
- TGI (LXFL 529 NSCLC): > 100 µM
- TGI (SNB-78 CNS): > 100 µM
- TGI (M19-MEL melanoma): > 100 µM
- TGI (DMS 273 small cell lung): > 100 µM
- TGI (EKVX NSCLC): > 100 µM
- TGI (DLD-1 colon): > 100 µM
- TGI (DMS 114 small cell lung): > 100 µM

SMILES: CC1CC(N)=Nc2ccccc2N1Cc1ccccc1 (stereo unspecified)
- TGI (UACC-62 melanoma): 27.2 µM
- TGI (SK-MEL-5 melanoma): 27.8 µM
- TGI (EKVX NSCLC): 63.9 µM

SMILES: O=C(OCc1ccccc1)N1CCNCCNCC1
- TGI (UACC-62 melanoma): > 100 µM
- TGI (SK-MEL-5 melanoma): > 100 µM
- TGI (EKVX NSCLC): > 100 µM

SMILES: CCOC(=O)Cc1ccc(Nc2nc3cc(C(F)(F)F)ccc3nc2C(=O)OCC)cc1
- TGI (UACC-62 melanoma): > 100 µM
- TGI (SK-MEL-5 melanoma): > 100 µM
- TGI (EKVX NSCLC): > 100 µM

SMILES: NCC(=O)C(O)C(O)C(O)CO (stereo unspecified)
- TGI (UACC-62 melanoma): > 100 µM
- TGI (SK-MEL-5 melanoma): > 100 µM
- TGI (EKVX NSCLC): > 100 µM

SMILES: O=[N+]([O-])C(/C(Cl)=C(/Cl)N1CCCCC1)=C1\NCCO1
- TGI (UACC-62 melanoma): > 100 µM
- TGI (EKVX NSCLC): > 100 µM

SMILES: CCC1(O)CC(OC2CC(N(C)C)C(OC3CC(O)C(OC4OC(C)C(=O)C=C4N)C(C)O3)C(C)O2)c2c(O)c3c(c(O)c2C1C(=O)OC)C(=O)c1cccc(O)c1C3=O (stereo unspecified)
- TGI (UACC-62 melanoma): 0.0375 µM
- TGI (SK-MEL-5 melanoma): 0.0659 µM
- TGI (EKVX NSCLC): 0.351 µM and 0.0968 µM

SMILES: CC(=O)C1(c2ccccc2)CCN(Cn2sc3nc(C)cc(C)c3c2=O)CC1
- TGI (UACC-62 melanoma): > 100 µM
- TGI (SK-MEL-5 melanoma): > 100 µM
- TGI (EKVX NSCLC): 58.1 µM

SMILES: CC(=O)O[C@H]1CC[C@H]2[C@@H]3CCc4cc(O)c(I)cc4[C@H]3CC[C@]12C
- GI50 (UACC-62 melanoma): 12 µM
- TGI (UACC-62 melanoma): 24.4 µM
- TGI (SK-MEL-5 melanoma): 17.2 µM
- TGI (EKVX NSCLC): 26.8 µM

SMILES: COC(=O)/C=C\c1ccc2c(c1)CC1(C2)Cc2ccc(/C=C/C(=O)OC)cc2C1 (stereo unspecified)
- TGI (UACC-62 melanoma): > 31.6 µM
- TGI (SK-MEL-5 melanoma): > 31.6 µM
- TGI (EKVX NSCLC): > 31.6 µM

SMILES: c1ccc(COCC23CCN(Cc4ccccc4)C(CC(OCc4ccccc4)C2)S3)cc1 (stereo unspecified)
- TGI (UACC-62 melanoma): > 100 µM
- TGI (SK-MEL-5 melanoma): 32.3 µM
- TGI (EKVX NSCLC): > 100 µM

SMILES: C1COC2SC3=C(SC(=C4SC5=C(SCCS5)S4)S3)SC2O1 (stereo unspecified)
- TGI (UACC-62 melanoma): > 100 µM
- TGI (SK-MEL-5 melanoma): > 100 µM
- TGI (EKVX NSCLC): > 100 µM

SMILES: Cc1cc(C)c2c(=O)cc(-c3ccc(Cl)cc3)[nH]c2n1
- TGI (UACC-62 melanoma): > 100 µM
- TGI (SK-MEL-5 melanoma): > 74.2 µM
- TGI (EKVX NSCLC): > 100 µM

SMILES: O=c1c2cccnc2[nH]c2ccc3scnc3c12
- TGI (UACC-62 melanoma): > 10 µM
- TGI (SK-MEL-5 melanoma): > 10 µM
- TGI (EKVX NSCLC): > 10 µM

SMILES: COc1ccc2[nH]c3c4c(c5cc(C(C)(C)C)ccc5c3c2c1)C(=O)N(c1ccccc1)C4=O
- TGI (KM20L2 colon): > 100 µM
- TGI (UACC-62 melanoma): > 100 µM
- TGI (SK-MEL-5 melanoma): > 100 µM
- TGI (HOP-18 NSCLC): > 100 µM
- TGI (LXFL 529 NSCLC): > 100 µM
- TGI (SNB-78 CNS): > 100 µM
- TGI (M19-MEL melanoma): > 100 µM
- TGI (EKVX NSCLC): > 100 µM
- TGI (DLD-1 colon): 30.3 µM
- TGI (DMS 114 small cell lung): > 100 µM

SMILES: CCOC(=O)/C(C#N)=C(/NS(=O)(=O)c1cc(C)c(Cl)cc1[S-])[n+]1ccc(N(C)C)cc1
- TGI (UACC-62 melanoma): > 100 µM
- TGI (SK-MEL-5 melanoma): > 100 µM
- TGI (EKVX NSCLC): > 100 µM

SMILES: CN(CCc1ccc(Br)cc1)CCN1CCCCC1
- TGI (SK-MEL-5 melanoma): 28.2 µM
- TGI (EKVX NSCLC): > 100 µM

SMILES: COC(=O)C1([C@@H]2C[C@@H](O)[C@]3(C)CC/C=C(\C)CCC[C@H](C)[C@H](O)[C@@H]2O3)CC1
- TGI (UACC-62 melanoma): > 100 µM
- TGI (SK-MEL-5 melanoma): > 100 µM
- TGI (EKVX NSCLC): > 100 µM

SMILES: CC1CCCOc2ccc(cc2)C=Nc2ccc(cc2)CCc2ccc(cc2)N=Cc2ccc(cc2)OCCC1 (stereo unspecified)
- TGI (UACC-62 melanoma): > 100 µM
- TGI (SK-MEL-5 melanoma): > 100 µM
- TGI (EKVX NSCLC): > 100 µM

SMILES: C=C(Cl)C(C)(Cl)CCC(Cl)C(C)(C)Cl (stereo unspecified)
- TGI (SK-MEL-5 melanoma): > 100 µM
- TGI (EKVX NSCLC): > 100 µM

SMILES: CC1(C)C(O)c2ccccc2OC1N1CCN(C2Oc3ccccc3C(O)C2(C)C)CC1 (stereo unspecified)
- TGI (UACC-62 melanoma): > 100 µM
- TGI (SK-MEL-5 melanoma): > 100 µM
- TGI (EKVX NSCLC): > 100 µM

SMILES: CC(C)(C)CN1[C@@H]2CCCC[C@H]2N(CC(C)(C)C)P1(=O)Cc1ccccc1
- TGI (UACC-62 melanoma): 22.5 µM
- TGI (SK-MEL-5 melanoma): 24.8 µM
- TGI (EKVX NSCLC): 27.4 µM

SMILES: O=C(Sc1c(-c2ccccc2)c(=O)n(-c2ccccc2)c(=S)n1-c1ccccc1)c1ccc(Cl)cc1
- TGI (UACC-62 melanoma): > 100 µM
- TGI (EKVX NSCLC): > 100 µM

SMILES: CCOC(=O)CSc1nc2ccccc2c(=O)n1N
- TGI (UACC-62 melanoma): > 100 µM
- TGI (SK-MEL-5 melanoma): > 100 µM
- TGI (EKVX NSCLC): > 100 µM

SMILES: CC(C#N)c1cn(S(=O)(=O)c2ccccc2)c2ccccc12 (stereo unspecified)
- TGI (KM20L2 colon): > 100 µM
- TGI (UACC-62 melanoma): > 100 µM
- TGI (SK-MEL-5 melanoma): 36.9 µM
- TGI (XF 498 CNS): > 100 µM
- TGI (LXFL 529 NSCLC): > 100 µM
- TGI (M19-MEL melanoma): > 100 µM
- TGI (DMS 273 small cell lung): > 100 µM
- TGI (DLD-1 colon): > 100 µM
- TGI (DMS 114 small cell lung): > 100 µM
